From patent publication US6808877B2, “Ligands for FPR class receptors that induce a host immune response to a pathogen or inhibit HIV infection” (priority 2000, dated 2004)
Where two headings read alike, the source gives them in different places.

What was measured:
CCR5 [1] = type: cell-based, human; details: HOS/CD4/CCR5 cells co-expressing FPR
CCR5 [2] = assay: 125I-MIP-1β binding to monocytes; set-up: species or system human
Procedure: Rocky Hill, N.J.). After incubation, the cells were washed with DPBS and centrifuged through a 10% sucrose/DPBS cushion. The tips of tubes containing cell pellets were cut and the cell-associated radioactivity was determined in a gamma counter. The results were presented as counts per minute (cpm) on 2×10^6 monocyte and were representative of at least three experiments performed.

monocytes [3] = assay: Monocyte migration in response to MIP-1β after pretreatment; type: cell-based, human; details: fMLP 10^−6 M, 37° C.
Procedure: Monocyte migration was assessed by a 48-well micro-chemotaxis chamber technique. 25 μl MIP-1β diluted in assay medium (RPMI 1640 with 1% BSA and 25 mM Hepes) was placed in the lower compartment of the chemotaxis chamber. 50 μl cell suspension (1×10^6 cell/ml) was placed in the upper compartment of the chamber. The upper and lower compartments were separated by a polycarbonate filter (5 μm pore-size, Neuroprobe, Cabin John, Md.). The chamber was incubated at 37° C. for 90 min in humidified air with 5% CO2. At the end of the incubation, the filter was removed, fixed and stained with Diff-Quik (Harlew, Gibbstown, N.J.). The migrated cells in three high-powered fields (HPF) obtained in triplicates (400×) were counted by light microscopy after coding the samples. The results are expressed as the net mean (±SD) number of migrated cells in 3 HPF after subtraction of spontaneous migration. At least three experiments were performed with same results.

CCR5 [4] = assay: Surface expression of CCR5 on monocytes by flow cytometry; type: cell-based, human; details: FITC-anti-CCR5 2D7
Procedure: The change of surface expression of CCR5 on monocytes was monitored by FACS analyses (courtesy of L. […] The cells were then washed twice with DPBS containing 2% BSA and fixed with 1% Paraformaldehyde (Sigma). The fluorescence was measured by flow cytometer (Becton Dickinson, San Jose, Calif.). Results are presented as the percentage of cells stained with anti-CCR5 antibody.

HIV-1BAL-env = assay: HIV-1 env fusion with human blood monocytes; type: cell-based
HIVJRFL = type: cell-based, HIV-1; details: peripheral blood monocyte/macrophages
[5] = tested on: monocyte tropic strains of HIV-1; type: cell-based; details: FPR-transfected HOS cells
monocytes [6] = assay: Ca2+ mobilization in monocytes (Fura-2); type: cell-based, human
Procedure: (§1) Calcium mobilization was measured by incubating 2×10^7/ml cells in loading medium (DMEM, 10% FBS) with 5 μM Fura-2 AM (Molecular Probes, Eugene, Oreg.) for 30 min at room temperature in the dark. The dye-loaded cells were washed 3 times with loading medium and resuspended in saline buffer [138 mM NaCl, 6 mM KCl, 1 mM CaCl2, 10 mM HEPES (pH 7.4), 5 mM Glucose, 0.1% BSA] at a concentration of 1×10^6/ml. The cells were then transferred into quartz cuvettes (2 ml) which were placed in a luminescence spectrometer (LS-50B, Perkin-Elmer, Beaconsfield, England). Stimulants at different concentrations were added in a volume of 20 μl to each cuvette at the indicated time points. The ratio of fluorescence at 340 and 380 nm wavelength was calculated using a FL WinLab program (Perkin-Elmer).
(§2) Calcium mobilization was assayed by incubating 2×10^7/ml of monocytes, neutrophils, FPRL1 or FPR transfectants in loading buffer containing 138 mM NaCl, 6 mM KCl, 1 mM CaCl2, 10 mM HEPES (pH 7.4), 5 mM glucose, 0.1% BSA with 5 μM Fura-2 (Sigma) at 37° C. for 30 min. The dye-loaded cells were washed and resuspended in fresh loading buffer. The cells were then transferred into quartz cuvettes (10^6 cells in 2 ml) which were placed in a luminescence spectrometer LS50 B (Perkin-Elmer Limited, Beaconsfield, England). Stimulants at different concentrations were added in a volume of 20 μl to the cuvettes at indicated time points. The ratio of fluorescence at 340 and 380 nm wavelength was calculated using the FL WinLab program (Perkin-Elmer).

neutrophils [7] = assay: Ca2+ mobilization in neutrophils (Fura-2); type: cell-based, human
Procedure: as §1, §2

FPRL1 [8] = target: T1, FPRL1 (Homo sapiens, UniProt P25090); type: cell-based
T1 construct: expressed in transfected cells; host or cells: HEK 293
T1 sequence (P25090 1-351): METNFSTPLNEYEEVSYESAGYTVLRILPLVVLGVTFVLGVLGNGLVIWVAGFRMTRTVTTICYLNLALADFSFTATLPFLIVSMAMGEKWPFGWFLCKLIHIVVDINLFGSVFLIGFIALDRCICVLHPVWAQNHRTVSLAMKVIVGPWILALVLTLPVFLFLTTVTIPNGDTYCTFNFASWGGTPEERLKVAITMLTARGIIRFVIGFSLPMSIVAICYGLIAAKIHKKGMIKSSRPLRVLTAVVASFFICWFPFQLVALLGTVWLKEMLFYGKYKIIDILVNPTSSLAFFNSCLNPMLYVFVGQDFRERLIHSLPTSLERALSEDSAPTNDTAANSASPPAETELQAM

FPRL1 [9] = target: T1, FPRL1; assay: Ca2+ mobilization in FPRL1/293 cells; type: cell-based
Procedure: as §1, §2

macrophages = details: compared to cells treated with medium alone
monocytes [10] = assay: Monocyte chemotaxis, 48-well micro-chemotaxis chamber; type: cell-based, human; details: human monocytes
neutrophils [11] = assay: Neutrophil chemotaxis, 48-well micro-chemotaxis chamber; type: cell-based; details: human neutrophils
T lymphocytes = assay: T lymphocyte chemotaxis; type: cell-based, human
CXCR4 = CXCR4 (Homo sapiens, UniProt P61073); assay: Interaction with CXCR4
Chain of CXCR4 (P61073 whole entry): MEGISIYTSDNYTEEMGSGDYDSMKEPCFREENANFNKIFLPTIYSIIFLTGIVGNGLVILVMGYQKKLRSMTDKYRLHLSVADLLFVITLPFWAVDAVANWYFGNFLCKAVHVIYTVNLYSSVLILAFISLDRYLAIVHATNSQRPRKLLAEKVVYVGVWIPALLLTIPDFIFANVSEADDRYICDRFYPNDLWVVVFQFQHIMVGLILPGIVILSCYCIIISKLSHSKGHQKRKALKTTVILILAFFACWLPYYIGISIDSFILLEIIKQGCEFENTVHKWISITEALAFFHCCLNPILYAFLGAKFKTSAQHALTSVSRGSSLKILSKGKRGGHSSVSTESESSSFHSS

[12] = concentrations in the micromolar range
[13] = high concentration of fMLP (1 μM), V3 1.5 μM

Compound: CSCC[C@H](NC=O)C(=O)N[C@@H](CC(C)C)C(=O)N[C@@H](Cc1ccccc1)C(=O)O [fMLP, N-formyl-methionyl-leucyl-phenylalanine]
- phosphorylation of CCR5 (CCR5 [1]): induced an increase in phosphorylation of CCR5
- specific binding for 125I-MIP-1β after treatment (CCR5 [2]; monocytes treated for 1 h): markedly reduced
- binding of 125I-MIP-1β after treatment (CCR5 [2]; monocytes treated for up to 30 min at 37° C.): only a marginally reduced binding
- displacement of 125I-MIP-1β binding (CCR5 [2]; monocytes, high concentrations as competitor): did not displace any
- chemotactic response to MIP-1β after pretreatment (monocytes [3]): progressively reduced chemotactic response
- expression of CCR5 on the cell surface (CCR5 [4]): markedly downregulated
- HIV-1 env fusion (HIV-1BAL-env): inhibition of HIV-1 env fusion with blood monocytes
- fusion and infection, syncytia formation and p24 production (HIVJRFL): significantly reduced the fusion and infection
- fusion and infection, syncytia formation and p24 production [5]: significantly reduced the fusion and infection
- response to W peptide (Ca2+ flux) (monocytes [6]; [12]): significantly attenuated
- signaling of V3 peptide on cross-desensitization (monocytes [6]; [13]): attenuated
- effect on W peptide-induced Ca2+ flux (monocytes [6]; low concentrations (nM range)): limited effect
- response to W peptide (Ca2+ flux) (neutrophils [7]; [12]): significantly attenuated
- signaling of V3 peptide on cross-desensitization (neutrophils [7]; [13]): attenuated
- effect on W peptide-induced Ca2+ flux (neutrophils [7]; low concentrations (nM range)): limited effect
- migration / chemotaxis (FPRL1 [8]): failed to migrate
- excess required to desensitize the effect of W peptide (Ca2+ flux) (FPRL1 [9]; FPRL1/293 cells): 10^5 fold excess
- minimal effective concentration to induce Ca2+ mobilization (FPRL1 [9]; FPRL1/293 cells, given as range in words): μM range
- viability of macrophages (macrophages): did not affect the viability of macrophages

Compound: TRPNYNKRKRIHIGPGRAFYTTKNIIGTIRQAH-NH2 [V3 peptide]
- chemotactic activity / migration (monocytes [10]): potent chemoattractant
- chemotactic activity / migration (neutrophils [11]): potent chemoattractant
- chemotactic activity (T lymphocytes): weak chemoattractant
- Ca2+ mobilization (monocytes [6]): mobilized Ca^2+
- attenuation of the cell response to chemokines including SDF-1α on sequential stimulation (monocytes [6]; V3 peptide 1.5 μM): did not, however, attenuate
- Ca2+ mobilization (neutrophils [7]): mobilized Ca^2+
- migration / chemotaxis (FPRL1 [8]; FPRL1/293 cells): induced both Ca^2+ mobilization and chemotaxis
- Ca2+ mobilization (FPRL1 [9]; HEK293 cells transfected to express FPRL1): induced both Ca^2+ mobilization and chemotaxis
- interaction with CXCR4 (CXCR4): did not interact with CXCR4
